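Growth conditions: 96-well plates. Treatment: test compound, 48 hours, 5 concentrations. Analysis: linear interpolation between bracketing concentrations; unreached endpoints set to highest concentration. GI50: concentration for 50% inhibition of growth. TGI: concentration producing complete growth inhibition.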
Tests used:
Experiment in all cases: DTP human tumour cell line panel, 48 h
[1] = system: 786-0 renal
[2] = system: A498 renal
[3] = system: A549 NSCLC
[4] = system: ACHN renal
[5] = system: BT-549 breast
[6] = system: CAKI-1 renal
[7] = system: CCRF-CEM leukemia
[8] = system: COLO 205 colon
[9] = system: DU-145 prostate
[10] = system: EKVX NSCLC
[11] = system: HCC-2998 colon
[12] = system: HCT-15 colon
[13] = system: HL-60(TB) leukemia
[14] = system: HOP-62 NSCLC
[15] = system: HOP-92 NSCLC
[16] = system: HS 578T breast
[17] = system: HT29 colon
[18] = system: IGROV1 ovarian
[19] = system: K-562 leukemia
[20] = system: KM12 colon
[21] = system: LOX IMVI melanoma
[22] = system: M14 melanoma
[23] = system: MALME-3M melanoma
[24] = system: MCF7 breast
[25] = system: MDA-MB-231 breast
[26] = system: MDA-MB-435
[27] = system: MDA-MB-468 breast
[28] = system: MOLT-4 leukemia
[29] = system: NCI-H226 lung
[30] = system: NCI-H23 lung
[31] = system: NCI-H460 lung
[32] = system: NCI-H522 lung
[33] = system: OVCAR-3 ovarian
[34] = system: OVCAR-4 ovarian
[35] = system: OVCAR-5 ovarian
[36] = system: OVCAR-8 ovarian
[37] = system: PC-3 prostate
[38] = system: RPMI-8226 leukemia
[39] = system: RXF 393 renal
[40] = system: SF-268 CNS
[41] = system: SF-295 CNS
[42] = system: SF-539 CNS
[43] = system: SK-MEL-2 melanoma
[44] = system: SK-MEL-28 melanoma
[45] = system: SK-MEL-5 melanoma
[46] = system: SK-OV-3 ovarian
[47] = system: SN12C renal
[48] = system: SNB-19 CNS
[49] = system: SNB-75 CNS
[50] = system: SR leukemia
[51] = system: SW-620 colon
[52] = system: T-47D breast
[53] = system: TK-10 renal
[54] = system: U251 CNS
[55] = system: UACC-257 melanoma
[56] = system: UACC-62 melanoma

## CN1C(=O)/C(=C/c2ccc3ncsc3c2)NC1=NC12CC3CC(CC(O)(C3)C1)C2
[1]
  GI50: 4.02 µM
  TGI: > 100 µM
[2]
  GI50: 1.6 µM
  TGI: 6.68 µM
[3]
  GI50: 1.98 µM
  TGI: > 100 µM
[4]
  GI50: 0.892 µM
  TGI: > 100 µM
[5]
  GI50: 1.17 µM
  TGI: 10.3 µM
[6]
  GI50: 1.64 µM
  TGI: > 100 µM
[7]
  GI50: 1.92 µM
  TGI: 8.18 µM
[8]
  GI50: 3.18 µM
  TGI: 30.5 µM
[9]
  GI50: 2.97 µM
  TGI: > 100 µM
[10]
  GI50: 4.25 µM
  TGI: > 100 µM
[11]
  GI50: 7.66 µM
  TGI: > 100 µM
[12]
  GI50: 2.13 µM
  TGI: > 100 µM
[13]
  GI50: 3.2 µM
  TGI: 8.15 µM
[14]
  GI50: 4.13 µM
  TGI: > 100 µM
[15]
  GI50: 5.31 µM
  TGI: 56.9 µM
[16]
  GI50: 2.16 µM
  TGI: 8.97 µM
[17]
  GI50: 3.85 µM
  TGI: 17.8 µM
[18]
  GI50: 2.82 µM
  TGI: > 100 µM
[19]
  GI50: 1.7 µM
  TGI: > 100 µM
[20]
  GI50: 2.81 µM
  TGI: > 100 µM
[21]
  GI50: 2.52 µM
  TGI: > 100 µM
[22]
  GI50: 4.28 µM
  TGI: 34.4 µM
[23]
  GI50: 2.98 µM
  TGI: 8.25 µM
[24]
  GI50: 2.98 µM
  TGI: > 100 µM
[25]
  GI50: 4.26 µM
  TGI: 85.4 µM
[26]
  GI50: 3.69 µM
  TGI: 20 µM
[27]
  GI50: 1.48 µM
  TGI: 15.9 µM
[28]
  GI50: 2.22 µM
  TGI: 22.3 µM
[29]
  GI50: 2.7 µM
  TGI: > 100 µM
[30]
  GI50: 2.48 µM
  TGI: 13.9 µM
[31]
  GI50: 2.22 µM
  TGI: > 100 µM
[32]
  GI50: 0.768 µM
  TGI: 4.49 µM
[33]
  GI50: 1.4 µM
  TGI: 6.18 µM
[34]
  GI50: 9.29 µM
  TGI: > 100 µM
[35]
  GI50: 5.12 µM
  TGI: > 100 µM
[36]
  GI50: 3.01 µM
  TGI: > 100 µM
[37]
  GI50: 3.73 µM
  TGI: > 100 µM
[38]
  GI50: 1.98 µM
  TGI: 6.83 µM
[39]
  GI50: 1.85 µM
  TGI: 12.2 µM
[40]
  GI50: 4.47 µM
  TGI: 34.5 µM
[41]
  GI50: 5.28 µM
  TGI: > 100 µM
[42]
  GI50: 1.29 µM
  TGI: 5.82 µM
[43]
  GI50: 1.98 µM
  TGI: 9.48 µM
[44]
  GI50: 2.57 µM
  TGI: 8.69 µM
[45]
  GI50: 2.02 µM
  TGI: 5.07 µM
[46]
  GI50: 2.21 µM
  TGI: > 100 µM
[47]
  GI50: 2.07 µM
  TGI: 49.6 µM
[48]
  GI50: 3.47 µM
  TGI: > 100 µM
[49]
  GI50: 1.02 µM
  TGI: 7.89 µM
[50]
  GI50: 0.534 µM
  TGI: 5.37 µM
[51]
  GI50: 2.74 µM
  TGI: 17.3 µM
[52]
  GI50: 3.32 µM
  TGI: > 100 µM
[53]
  GI50: 4.44 µM
  TGI: > 100 µM
[54]
  GI50: 3.14 µM
  TGI: > 100 µM
[55]
  GI50: 3.59 µM
  TGI: 12.5 µM
[56]
  GI50: 2.22 µM
  TGI: 9.09 µM
